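Cells were grown in 96-well plates and exposed to each compound for 48 hours at five concentrations; endpoints were interpolated linearly between bracketing concentrations, or set to the highest concentration if not reached. TGI: concentration producing complete growth inhibition.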
What was measured:
Test in all cases: inhibition of tumour cell growth, NCI panel, 48 h
UACC-257 melanoma = system: UACC-257 melanoma
SNB-75 CNS = system: SNB-75 CNS
OVCAR-4 ovarian = system: OVCAR-4 ovarian
NCI/ADR-RES ovarian = system: NCI/ADR-RES ovarian
K-562 leukemia = system: K-562 leukemia
SNB-19 CNS = system: SNB-19 CNS
UO-31 renal = system: UO-31 renal
SK-OV-3 ovarian = system: SK-OV-3 ovarian

SMILES | TGI (UACC-257 melanoma) [µM] | TGI (SNB-75 CNS) [µM] | TGI (OVCAR-4 ovarian) [µM] | TGI (NCI/ADR-RES ovarian) [µM] | TGI (K-562 leukemia) [µM] | TGI (SNB-19 CNS) [µM] | TGI (UO-31 renal) [µM] | TGI (SK-OV-3 ovarian) [µM]
CNC(=O)N(CCC#N)CCN(CCN(C(=O)NC)c1ccccc1)C(=O)NC | > 100 | > 100 | > 100 | > 100 | > 100 | > 100 | > 100 | > 100
O=C(O)/C(=C\c1ccccc1)Cc1ccccc1 | > 100 | > 100 | > 100 | > 100 | > 100 | > 100 | > 100 | > 100
Nc1ncnc2c1ncn2CC(OCP(=O)(O)O)Oc1ccccc1 (configuration not stated) | > 100 | > 100 | > 100 | > 100 | > 100 | > 100 | > 100 | > 100
COC(=O)[C@]1(c2cc3ccccc3n2S(=O)(=O)c2ccccc2)CC2CCC1NC2 (some centres not stated) | 32 | 30.5 | 48.3 | 44.6 | 24.4 | 28 | 22.3 | 32.8
Cc1sc(N=Nc2c(O)[nH]c3ccccc23)nc1-c1ccccc1 | 47.8 | 47 | 42.3 | 44.7 |  | 37.3 | 29.9 | 33.6
Cc1cc(S(=O)(=O)Nc2nc(N)n(C)n2)c(S)cc1Cl | > 10 | > 10 | > 10 | > 10 | > 10 | > 10 | > 10 | > 10
CNC(Cc1ccccc1)c1cccc(OC)c1O (configuration not stated) | 53.9 |  | > 100 | > 100 | > 100 | > 100 | > 100 | 
COc1cc(/C=C2\NC(=O)N(/C=C3\C(=O)Oc4ccccc4C3=O)C2=O)ccc1O | > 100 | 77 | > 100 | > 100 | > 100 | > 100 | > 100 | > 100
O=S(=O)(Nc1ccccc1S(=O)(=O)c1ccccc1)c1ccccc1 | > 100 | > 100 | > 100 | > 100 | > 100 | > 100 | > 100 | > 100
Cc1cccc(C)c1NC(=S)/N=C/C1=C(O)c2ccccc2C1=O | > 88.5 | 51.4 | > 65.4 | > 100 | > 100 | > 100 | > 86.1 | > 29.3
O=C(c1nsc(Cl)c1Cl)N1CCCCC1 | > 100 | > 100 | > 100 | > 100 | > 100 | > 100 | > 100 | > 100
Cc1c(-c2ccccc2)n(C)c2cn[nH]c(=O)c12 | > 100 |  |  | 69.4 | > 100 | > 100 | > 100 | 61.2
C=CCC1(O)c2cccc(O)c2C(=O)c2c(O)cccc21 | 68.3 | 75.2 | > 100 | 43 | > 100 |  | > 100 | 

— PubChem BioAssay (NCI)
